The record followed here is patent US9453026B2, “ACC inhibitors and uses thereof” (Gilead Apollo, Inc., priority 2011, dated 2016).

SMILES strings stand for the structures. A value given as a limit tells only on which side of the number the result lay.

ACC2, sequence (O00763 whole entry, species assumed): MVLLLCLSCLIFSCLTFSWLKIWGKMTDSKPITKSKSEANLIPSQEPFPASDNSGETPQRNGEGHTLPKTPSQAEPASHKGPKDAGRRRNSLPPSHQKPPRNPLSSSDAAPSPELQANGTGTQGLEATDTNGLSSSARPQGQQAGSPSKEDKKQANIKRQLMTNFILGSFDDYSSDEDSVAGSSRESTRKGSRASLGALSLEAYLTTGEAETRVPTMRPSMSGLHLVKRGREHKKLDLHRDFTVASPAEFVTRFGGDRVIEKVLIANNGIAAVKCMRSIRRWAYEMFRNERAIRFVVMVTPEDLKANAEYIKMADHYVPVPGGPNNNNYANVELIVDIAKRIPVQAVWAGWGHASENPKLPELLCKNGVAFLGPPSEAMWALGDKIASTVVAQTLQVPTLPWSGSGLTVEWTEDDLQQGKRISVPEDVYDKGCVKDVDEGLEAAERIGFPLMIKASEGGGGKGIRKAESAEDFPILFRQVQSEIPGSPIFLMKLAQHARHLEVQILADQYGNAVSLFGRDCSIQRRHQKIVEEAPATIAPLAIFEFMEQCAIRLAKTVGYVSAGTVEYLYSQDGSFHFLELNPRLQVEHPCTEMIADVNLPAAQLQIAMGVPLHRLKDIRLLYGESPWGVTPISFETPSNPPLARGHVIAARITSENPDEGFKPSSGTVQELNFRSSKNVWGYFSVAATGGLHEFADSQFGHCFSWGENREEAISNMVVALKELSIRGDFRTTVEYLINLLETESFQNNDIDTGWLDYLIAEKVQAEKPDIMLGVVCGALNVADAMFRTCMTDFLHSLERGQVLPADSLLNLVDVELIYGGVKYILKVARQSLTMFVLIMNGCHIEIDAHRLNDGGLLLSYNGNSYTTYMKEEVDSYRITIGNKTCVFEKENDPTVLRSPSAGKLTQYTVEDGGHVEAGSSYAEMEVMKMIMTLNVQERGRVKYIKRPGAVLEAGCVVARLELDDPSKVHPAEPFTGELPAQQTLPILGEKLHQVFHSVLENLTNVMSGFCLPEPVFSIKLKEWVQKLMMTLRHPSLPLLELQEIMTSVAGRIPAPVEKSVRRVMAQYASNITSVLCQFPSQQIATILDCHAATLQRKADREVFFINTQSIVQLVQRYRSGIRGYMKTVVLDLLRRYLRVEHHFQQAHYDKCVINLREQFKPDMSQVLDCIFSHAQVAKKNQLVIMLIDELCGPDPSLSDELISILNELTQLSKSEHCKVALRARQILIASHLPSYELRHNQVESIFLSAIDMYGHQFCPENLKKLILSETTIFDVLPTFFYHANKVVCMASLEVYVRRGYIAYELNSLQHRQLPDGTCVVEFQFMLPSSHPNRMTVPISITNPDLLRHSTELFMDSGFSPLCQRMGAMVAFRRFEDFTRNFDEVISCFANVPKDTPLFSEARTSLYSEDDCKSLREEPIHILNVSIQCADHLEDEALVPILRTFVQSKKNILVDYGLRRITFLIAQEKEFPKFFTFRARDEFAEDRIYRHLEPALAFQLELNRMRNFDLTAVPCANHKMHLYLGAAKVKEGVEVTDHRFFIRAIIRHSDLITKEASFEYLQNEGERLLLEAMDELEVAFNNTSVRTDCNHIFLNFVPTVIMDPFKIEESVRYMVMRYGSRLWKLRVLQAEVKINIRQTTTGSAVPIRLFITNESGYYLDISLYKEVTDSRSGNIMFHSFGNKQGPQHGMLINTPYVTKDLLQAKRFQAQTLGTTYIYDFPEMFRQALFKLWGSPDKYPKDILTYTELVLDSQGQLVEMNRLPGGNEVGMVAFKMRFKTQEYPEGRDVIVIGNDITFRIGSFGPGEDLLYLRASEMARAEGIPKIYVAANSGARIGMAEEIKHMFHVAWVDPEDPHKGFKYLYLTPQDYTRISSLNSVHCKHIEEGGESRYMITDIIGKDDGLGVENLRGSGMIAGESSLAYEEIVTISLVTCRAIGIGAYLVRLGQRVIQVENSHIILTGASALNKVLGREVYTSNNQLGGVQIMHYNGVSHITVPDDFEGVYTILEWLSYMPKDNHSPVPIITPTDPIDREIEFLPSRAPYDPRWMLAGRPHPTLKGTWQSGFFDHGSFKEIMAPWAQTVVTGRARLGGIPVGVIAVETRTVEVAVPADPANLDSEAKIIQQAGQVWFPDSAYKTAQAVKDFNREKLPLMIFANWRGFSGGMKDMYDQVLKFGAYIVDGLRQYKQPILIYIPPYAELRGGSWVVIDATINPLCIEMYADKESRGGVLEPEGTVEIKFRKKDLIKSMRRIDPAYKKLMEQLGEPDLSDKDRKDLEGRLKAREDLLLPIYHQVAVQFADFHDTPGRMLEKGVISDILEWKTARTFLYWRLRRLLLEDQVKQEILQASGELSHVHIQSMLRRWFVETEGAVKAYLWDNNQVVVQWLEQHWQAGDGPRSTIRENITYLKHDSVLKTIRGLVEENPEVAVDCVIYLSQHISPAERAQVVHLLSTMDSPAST

The target of the experiment is ACC2 (Homo sapiens, UniProt O00763). Kind of experiment: In vitro ACC2 inhibition assay (ADP-Glo). Conditions: read-out: ACC2. The experiment is classed as biochemical. An outline of the steps:
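Enzyme (human ACC1 or ACC2) and compound, serially diluted 1:3 over 11 points from a 600 uM DMSO stock, were preincubated 15 min before substrate addition.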
Background: In ADP-Glo the light output rises with the ADP produced.
For `Cc1c(-c2ncco2)sc2c1c(=O)n(C(C)(C)C(=O)O)c(=O)n2C[C@@H](Oc1ccc(F)cc1)c1ccccc1` [I-150, (S)-2-(1-(2-(4-fluorophenoxy)-2-phenylethyl)-5-methyl-6-(oxazol-2-yl)-2,4-dioxo-1,2-dihydrotheno[2,3-d]pyrimidin-3(4H)-yl)-2-methylpropanoic acid], the IC50 was 5 to 20 µM.

As for `CCCc1ccccc1CCn1c(=O)n(C(C)(C)C(N)=O)c(=O)c2c(C)c(-c3ncco3)sc21` [I-151, 2-methyl-2-[5-methyl-6-(1,3-oxazol-2-yl)-2,4-dioxo-1-[2-(2-propylphenyl)ethyl]-1H,2H,3H,4H-thieno[2,3-d]pyrimidin-3-yl]propanamide], the IC50 is below 1 µM.

On to `Cc1c(-c2ncco2)sc2c1c(=O)n(C(C)(C)C(=O)O)c(=O)n2C[C@H](O[C@H]1CCCC[C@@H]1C)c1ccccc1` [I-152, 2-methyl-2-[5-methyl-1-[(2R)-2-[[(1S,2S)-2-methylcyclohexyl]oxy]-2-phenylethyl]-6-(1,3-oxazol-2-yl)-2,4-dioxo-1H,2H,3H,4H-thieno[2,3-d]pyrimidin-3-yl]propanoic acid], for which the IC50 was below 1 µM.

For `Cc1c(-c2ncco2)sc2c1c(=O)n(Cc1nn[nH]n1)c(=O)n2C[C@H](OC(C)C)c1ccccc1` [I-153, 5-methyl-6-(1,3-oxazol-2-yl)-1-[(2R)-2-phenyl-2-(propan-2-yloxy)ethyl]-3-(1H-1,2,3,4-tetrazol-5-ylmethyl)-1H,2H,3H,4H-thieno[2,3-d]pyrimidine-2,4-dione], the IC50 was below 1 µM.

Turning to `Cc1c(-c2ncco2)sc2c1c(=O)n(C(C)(C)C#N)c(=O)n2C[C@H](OC(C)C)c1ccccc1` [I-154, 2-methyl-2-[5-methyl-6-(1,3-oxazol-2-yl)-2,4-dioxo-1-[(2R)-2-phenyl-2-(propan-2-yloxy)ethyl]-1H,2H,3H,4H-thieno[2,3-d]pyrimidin-3-yl]propanenitrile], the IC50 was below 1 µM.

Regarding `Cc1c(-c2ncco2)sc2c1c(=O)n(C(C)(C)C(=O)O)c(=O)n2C[C@H](OC1CCC(F)(F)CC1)c1ccccc1` [I-155, 2-[1-[(2R)-2-[(4,4-difluorocyclohexyl)oxy]-2-phenylethyl]-5-methyl-6-(1,3-oxazol-2-yl)-2,4-dioxo-1H,2H,3H,4H-thieno[2,3-d]pyrimidin-3-yl]-2-methylpropanoic acid], the IC50 was below 1 µM.

Take `Cc1c(-c2ncc(Cl)o2)sc2c1c(=O)n(C(C)(C)C(=O)O)c(=O)n2C[C@H](OC(C)C)c1ccccc1` [I-156, 2-[6-(5-chloro-1,3-oxazol-2-yl)-5-methyl-2,4-dioxo-1-[(2R)-2-phenyl-2-(propan-2-yloxy)ethyl]-1H,2H,3H,4H-thieno[2,3-d]pyrimidin-3-yl]-2-methylpropanoic acid]: the IC50 is below 5 µM.

In the case of `Cc1c(-n2cncn2)sc2c1c(=O)n(C(C)(C)C(=O)O)c(=O)n2C[C@H](OC(C)C)c1ccccc1` [I-157, 2-methyl-2-[5-methyl-2,4-dioxo-1-[(2R)-2-phenyl-2-(propan-2-yloxy)ethyl]-6-(1H-1,2,4-triazol-1-yl)-1H,2H,3H,4H-thieno[2,3-d]pyrimidin-3-yl]propanoic acid], the IC50 lay within 20 to 50 µM.

Consider `Cc1c(-c2ncco2)sc2c1c(=O)n(C(C)(C)C(=O)O)c(=O)n2C[C@@H](Oc1ccc(-n2ccnc2)cc1)c1ccccc1` [I-161, 2-[1-[(2S)-2-[4-(1H-Imidazol-1-yl)phenoxy]-2-phenylethyl]-5-methyl-6-(1,3-oxazol-2-yl)-2,4-dioxo-1H,2H,3H,4H-thieno[2,3-d]pyrimidin-3-yl]-2-methylpropanoic acid], for which the IC50 is below 5 µM.

On to `Cc1c(-c2ncco2)sc2c1c(=O)n(C(C)(C)C(=O)O)c(=O)n2C[C@H](O[C@H]1CC[C@H](N)CC1)c1ccccc1` [I-166, 2-(1-((R)-2-(((1r,4R)-4-aminocyclohexyl)oxy)-2-phenylethyl)-5-methyl-6-(oxazol-2-yl)-2,4-dioxo-1,2-dihydrothieno[2,3-d]pyrimidin-3(4H)-yl)-2-methylpropanoic acid], for which the IC50 was below 1 µM.

`Cc1c(-c2ncco2)sc2c1c(=O)n(C(C)(C)C(=O)O)c(=O)n2C[C@H](O[C@H]1CC[C@@H](N)CC1)c1ccccc1` [I-167, 2-(1-((R)-2-(((1s,4S)-4-aminocyclohexyl)oxy)-2-phenylethyl)-5-methyl-6-(oxazol-2-yl)-2,4-dioxo-1,2-dihydrothieno[2,3-d]pyrimidin-3(4H)-yl)-2-methylpropanoic acid]: the IC50 was below 5 µM.

`Cc1c(-c2ncco2)sc2c1c(=O)n(C(C)(C)C(=O)O)c(=O)n2C[C@H](O[C@H]1CC[C@@](C)(O)CC1)c1ccccc1` [I-168, 2-(1-((R)-2-(((1s,4S)-4-hydroxy-4-methylcyclohexyl)oxy)-2-phenylethyl)-5-methyl-6-(oxazol-2-yl)-2,4-doxo-1,2-dihydrothieno[2,3-d]pyrimidin-3(4H)-yl)-2-methylpropanoic acid]: the IC50 was below 1 µM.

Turning to `Cc1c(-c2ncco2)sc2c1c(=O)n(C(C)(C)C(=O)O)c(=O)n2C[C@H](OCCO)c1ccccc1` [I-169, 2-[1-[(2R)-2-(2-hydroxyethoxy)-2-phenylethyl]-5-methyl-6-(1,3-oxazol-2-yl)-2,4-dioxo-1H,2H,3H,4H-thieno[2,3-d]pyrimidin-3-yl]-2-methylpropanoic acid], the IC50 is below 0.1 µM.

Consider `Cc1c(-c2ncco2)sc2c1c(=O)n(C(C)(C)C(=O)O)c(=O)n2C[C@H](OC[C@H](C)CO)c1ccccc1` [I-170, 2-(1-((R)-2-((R)-3-hydroxy-2-methylpropoxy)-2-phenylethyl)-5-methyl-6-(oxazol-2-yl)-2,4-dioxo-1,2-dihydrotheno[2,3-d]pyrimidin-3(4H)-yl)-2-methylpropanoic acid], for which the IC50 was below 1 µM.

Regarding `Cc1c(-c2ncco2)sc2c1c(=O)n(C(C)(C)C(=O)O)c(=O)n2C[C@H](OC[C@@H](C)CO)c1ccccc1` [I-171, 2-(1-((R)-2-((S)-3-hydroxy-2-methylpropoxy)-2-phenylethyl)-5-methyl-6-(oxazol-2-yl)-2,4-dioxo-1,2-dihydrothieno[2,3-d]pyrimidin-3(4H)-yl)-2-methylpropanoic acid], the IC50 is below 1 µM.

Consider `Cc1c(-c2ncco2)sc2c1c(=O)n(C(C)(C)C(=O)O)c(=O)n2C[C@H](O[C@H]1CCC[C@H](O)C1)c1ccccc1` [I-172, 2-(1-((R)-2-(((1S,3S)-3-hydroxycyclohexyl)oxy)-2-phenylethyl)-5-methyl-6-(oxazol-2-yl)-2,4-dioxo-1,2-dihydrothieno[2,3-d]pyrimidin-3(4H)-yl)-2-methylpropanoic acid], for which the IC50 is below 1 µM.

Turning to `Cc1c(-c2ncco2)sc2c1c(=O)n(C(C)(C)C(=O)O)c(=O)n2C[C@H](O[C@H]1CCC[C@@H](O)C1)c1ccccc1` [I-173, 2-(1-((R)-2-(((1S,3R)-3-hydroxycyclohexyl)oxy)-2-phenylethyl)-5-methyl-6-(oxazol-2-yl)-2,4-dioxo-1,2-dihydrothieno[2,3-d]pyrimidin-3(4H)-yl)-2-methylpropanoic acid], the IC50 was below 1 µM.

On to `Cc1c(-c2ncco2)sc2c1c(=O)n(C(C)(C)C(=O)O)c(=O)n2C[C@H](OCC(C)(C)O)c1ccccc1` [I-175, 2-[1-[(2R)-2-(2-hydroxy-2-methylpropoxy)-2-phenylethyl]-5-methyl-6-(1,3-oxazol-2-yl)-2,4-dioxo-1H,2H,3H,4H-thieno[2,3-d]pyrimidin-3-yl]-2-methylpropanoic acid], for which the IC50 is below 1 µM.

Regarding `Cc1c(-c2ncco2)sc2c1c(=O)n(C(C)(C)C(=O)O)c(=O)n2CCC1CCCCC1` [I-176, 2-[1-(2-cyclohexylethyl)-5-methyl-6-(1,3-oxazol-2-yl)-2,4-dioxo-1H,2H,3H,4H-thieno[2,3-d]pyrimidin-3-yl]-2-methylpropanoic acid], the IC50 is below 5 µM.

With `Cc1c(-c2ncco2)sc2c1c(=O)n(C(C)(C)C(=O)O)c(=O)n2C[C@H](OC[C@H](C)O)c1ccccc1` [I-178, 2-[1-[(2R)-2-[(2S)-2-hydroxypropoxy]-2-phenylethyl]-5-methyl-6-(1,3-oxazol-2-yl)-2,4-dioxo-1H,2H,3H,4H-thieno[2,3-d]pyrimidin-3-yl]-2-methylpropanoic acid], the IC50 was below 5 µM.

As for `Cc1c(-c2ncco2)sc2c1c(=O)n(C(C)(C)C(=O)O)c(=O)n2C[C@H](OC1COC1)c1ccccc1` [I-182, 2-methyl-2-[5-methyl-6-(1,3-oxazol-2-yl)-1-[(2R)-2-(oxetan-3-yloxy)-2-phenylethyl]-2,4-dioxo-1H,2H,3H,4H-thieno[2,3-d]pyrimidin-3-yl]propanoic acid], the IC50 lay in the range of 20 to 50 µM.

As to `CCOc1ccccc1[C@H](Cn1c(=O)n(C(C)(C)C(=O)O)c(=O)c2c(C)c(-c3ncco3)sc21)OC1CCOCC1` [I-183, 2-[1-[(2R)-2-(2-ethoxyphenyl)-2-(oxan-4-yloxy)ethyl]-5-methyl-6-(1,3-oxazol-2-yl)-2,4-dioxo-1H,2H,3H,4H-thieno[2,3-d]pyrimidin-3-yl]-2-methylpropanoic acid], the IC50 was below 0.1 µM.

For `Cc1c(-c2ncco2)sc2c1c(=O)n(C(C)(C)C(=O)O)c(=O)n2C[C@H](O[C@H](C)CO)c1ccccc1` [I-184, 2-[1-[(2R)-2-[[(2R)-1-hydroxypropan-2-yl]oxy]-2-phenylethyl]-5-methyl-6-(1,3-oxazol-2-yl)-2,4-dioxo-1H,2H,3H,4H-thieno[2,3-d]pyrimidin-3-yl]-2-methylpropanoic acid], the IC50 is below 1 µM.

Take `Cc1c(-c2ncco2)sc2c1c(=O)n(C(C)(C)C(=O)O)c(=O)n2C[C@H](O[C@@H](C)CO)c1ccccc1` [I-185, 2-[1-[(2R)-2-[[(2S)-1-hydroxypropan-2-yl]oxy]-2-phenylethyl]-5-methyl-6-(1,3-oxazol-2-yl)-2,4-dioxo-1H,2H,3H,4H-thieno[2,3-d]pyrimidin-3-yl]-2-methylpropanoic acid]: the IC50 is below 1 µM.

Regarding `Cc1c(-c2ncco2)sc2c1c(=O)n(C(C)(C)C(=O)O)c(=O)n2C[C@H](O[C@@H]1CCOC1)c1ccccc1` [I-186, 2-methyl-2-[5-methyl-6-(1,3-oxazol-2-yl)-2,4-dioxo-1-[(2R)-2-[(3R)-oxolan-3-yloxy]-2-phenylethyl]-1H,2H,3H,4H-thieno[2,3-d]pyrimidin-3-yl]propanoic acid], the IC50 is below 1 µM.
